From patent US20190100534A1, “Cephem Compounds with Latent Reactive Groups” (Gladius Pharmaceuticals, Inc., priority 2017, published 2019)

What was measured:
Assay in all cases: MIC determination, isogenic E. coli strains
Assay type in all cases: cell-based
E. coli J53 Alone = details: for Mimimum Inhibitory Concentrations, J53 Alone: CAMH broth, 20 μM Apo-Transferrin, 37° C., 18 hours; for MIC: Escherichia coli, J53ALONE, 18 h, read-out: Mimimum Inhibitory Concentrations, J53 Alone
Protocol: (§1) Sterile technique was used throughout these experiments. Suspensions of organisms were removed from storage (−80° C.) and partially thawed. Partially thawed organisms (1 μL) were inoculated into 3 mL sterile LB Broth in a sterile culture tube and capped, then cultured at 37° C. with shaking for 4-5 hours until the optical density at 600 nm (OD600) was greater than 0.1 on a single beam spectrophotometer.
(§2) The concentration of organisms was adjusted to 0.08-0.1 OD600 (0.5 McFarland units) by dilution with sterile cation-adjusted Meuller-Hinton (CAMH) broth. The suspensions were used within 30 minutes of preparation.
(§3) A stock solution was made of each test compound by measuring 6.4 mg of the compound on an analytical balance and dissolving it in DMSO (1 mL) to get a transparent solution. The solutions were stored at −20° C. and thawed prior to use.
(§4) Sterile CAMH broth (200 μL) containing 20 μM Apo-Transferrin was pipetted into the first row of 8 columns of a sterile, round-bottomed, transparent, 96-well microplate using an 8-channel pipette equipped with sterile tips. One hundred μL was pipetted into the wells of the remaining 11 rows.
(§5) With an 8-channel pipette equipped with sterile tips, 100 μL of the first row solution was transferred to the second row and mixed. The process was repeated for the second to third rows and continued through row 11. One hundred μL from row 11 was removed and discarded so that all 12 rows contained 100 μL. Row 12 contained no compound and rows 1-11 contained 64, 32, 16, 8, 4, 2, 1, 0.5, 0.25, 0.125, […] of a given compound.
(§6) Inoculant suspensions (0.5 μL) were added to the 12 wells of each column. The plates were then covered and incubated at 37° C. overnight for 18 hours.
(§7) For each organism the MIC was determined by identifying the transparent well with the lowest test compound concentration.
(§8) The gene sequence for each beta-lactamase enzyme was synthesized and inserted into the pBC-SK(+) plasmid by GenScript, a commercial service. E. coli J53 was transformed with each plasmid via electroporation and resistant transformants were selected on agar plates containing 50 micrograms/mL ampicillin. The selected transformants were stored at −80 degrees C. in 20% glycerol.

[1] = system: Isogenic E. coli J58 strain carrying DHA-1; details: for Mimimum Inhibitory Concentrations, DHA-1: isogenic E. coli strain, CAMH broth, 20 μM Apo-Transferrin, 37° C., 18 hours; for MIC: Escherichia coli, 18 h, read-out: Mimimum Inhibitory Concentrations, DHA-1
Protocol: as §1, §2, §3, §4, §5, §6, §7, §8

[2] = system: Isogenic E. coli J58 strain carrying TEM-26; details: for Mimimum Inhibitory Concentrations, TEM-26: isogenic E. coli strain, CAMH broth, 20 μM Apo-Transferrin, 37° C., 18 hours; for MIC: Escherichia coli, 18 h, read-out: Mimimum Inhibitory Concentrations, TEM-26
Protocol: as §1, §2, §3, §4, §5, §6, §7
TEM-26 (Group 2be beta-lactamase, hydrolyzes extended spectrum cephalosporins and monobactams), [25];
as §8

[3] = system: Isogenic E. coli J58 strain carrying SHV-1; details: for Mimimum Inhibitory Concentrations, SHV-1: isogenic E. coli strain, CAMH broth, 20 μM Apo-Transferrin, 37° C., 18 hours; for MIC: Escherichia coli, 18 h, read-out: Mimimum Inhibitory Concentrations, SHV-1
Protocol: as §1, §2, §3, §4, §5, §6, §7
SHV-1 (Class A, Group 2b beta-lactamase, hydrolyzes penicillins and early cephalosporins);
as §8

[4] = system: Isogenic E. coli J58 strain carrying CTX-M-14; details: for Mimimum Inhibitory Concentrations, CTX-M-14: isogenic E. coli strain, CAMH broth, 20 μM Apo-Transferrin, 37° C., 18 hours; for MIC: Escherichia coli, 18 h, read-out: Mimimum Inhibitory Concentrations, CTX-M-14
Protocol: as §1, §2, §3, §4, §5, §6, §7
(§9) CTX-M-14 and CTX-M-15 (Class A, Group 2be beta-lactamases, hydrolyzes extended spectrum cephalosporins and monobactams);
as §8

[5] = system: Isogenic E. coli J58 strain carrying CTX-M-15; details: for Mimimum Inhibitory Concentrations, CTX-M-15: isogenic E. coli strain, CAMH broth, 20 μM Apo-Transferrin, 37° C., 18 hours; for MIC: Escherichia coli, 18 h, read-out: Mimimum Inhibitory Concentrations, CTX-M-15
Protocol: as §1, §2, §3, §4, §5, §6, §7, §9, §8

[6] = system: Isogenic E. coli J58 strain carrying KPC-2; details: for Mimimum Inhibitory Concentrations, KPC-2: isogenic E. coli strain, CAMH broth, 20 μM Apo-Transferrin, 37° C., 18 hours; for MIC: Escherichia coli, 18 h, read-out: Mimimum Inhibitory Concentrations, KPC-2
Protocol: as §1, §2, §3, §4, §5, §6, §7
(§10) KPC-2 and KPC-3 (Class A, Group 2f, carbapenemases);
as §8

[7] = system: Isogenic E. coli J58 strain carrying KPC-3; details: for Mimimum Inhibitory Concentrations, KPC-3: isogenic E. coli strain, CAMH broth, 20 μM Apo-Transferrin, 37° C., 18 hours; for MIC: Escherichia coli, 18 h, read-out: Mimimum Inhibitory Concentrations, KPC-3
Protocol: as §1, §2, §3, §4, §5, §6, §7, §10, §8

[8] = system: Isogenic E. coli J58 strain carrying NDM-1; details: for Mimimum Inhibitory Concentrations, NDM-1: isogenic E. coli strain, CAMH broth, 20 μM Apo-Transferrin, 37° C., 18 hours; for MIC: Escherichia coli, 18 h, read-out: Mimimum Inhibitory Concentrations, NDM-1
Protocol: as §1, §2, §3, §4, §5, §6, §7
NDM-1 (Group 3a carbapenemase, broad spectrum divalent Zn^++ metallo-Beta-Lactamase);
as §8

[9] = system: Isogenic E. coli J58 strain carrying VIM-2; details: for Mimimum Inhibitory Concentrations, VIM-2: isogenic E. coli strain, CAMH broth, 20 μM Apo-Transferrin, 37° C., 18 hours; for MIC: Escherichia coli, 18 h, read-out: Mimimum Inhibitory Concentrations, VIM-2
Protocol: as §1, §2, §3, §4, §5, §6, §7
VIM-2 (Group 3a carbapenemase, metallo-beta-lactamase); and
as §8

[10] = system: Isogenic E. coli J58 strain carrying IMP-1; details: for Mimimum Inhibitory Concentrations, IMP-1: isogenic E. coli strain, CAMH broth, 20 μM Apo-Transferrin, 37° C., 18 hours; for MIC: Escherichia coli, 18 h, read-out: Mimimum Inhibitory Concentrations, IMP-1; for MICs for an E. coli strain carrying the gene for carbapenemase IMP-1, in words: review of Tables 4-1 and 4-2
Protocol: as §1, §2, §3, §4, §5, §6, §7
IMP-1 (Group 3a carbapenemase, metallo-beta-Lactamase).
as §8

CO/N=C(\C(=O)N[C@@H]1C(=O)N2C(C(=O)O)=C(C=Cc3ccc(C[n+]4ccc(OC)c(OC)c4)cc3[N+](=O)[O-])CS[C@H]12)c1csc(N)n1 (mixture of isomers) [Compound 392, 1-(4-((E/Z)-2-((6R,7R)-7-((Z)-2-(2-aminothiazol-4-yl)-2-(methoxyimino)acetamido)-2-carboxy-8-oxo-5-thia-1-azabicyclo[4.2.0]oct-2-en-3-yl)vinyl)-3-nitrobenzyl)-3,4-dimethoxypyridin-1-ium] was tested, and the “Mimimum Inhibitory Concentrations, J53 Alone” value (E. coli J53 Alone; Table 4-1) was 64 microgram/mL, the “Mimimum Inhibitory Concentrations, J53 Alone” value (E. coli J53 Alone; Table 4-2) was 64 microgram/mL and the “Mimimum Inhibitory Concentrations, DHA-1” value [1] was over 64 microgram/mL. For the same compound, the “Mimimum Inhibitory Concentrations, TEM-26” value [2] was 32 microgram/mL, the “Mimimum Inhibitory Concentrations, SHV-1” value [3] was over 64 microgram/mL and the “Mimimum Inhibitory Concentrations, CTX-M-14” value [4] was over 64 microgram/mL. For the same compound, the “Mimimum Inhibitory Concentrations, CTX-M-15” value [5] was over 64 microgram/mL, the “Mimimum Inhibitory Concentrations, KPC-2” value [6] was over 64 microgram/mL and the “Mimimum Inhibitory Concentrations, KPC-3” value [7] was over 64 microgram/mL. The “Mimimum Inhibitory Concentrations, NDM-1” value [8] was over 64 microgram/mL, the “Mimimum Inhibitory Concentrations, VIM-2” value [9] was over 64 microgram/mL and the “Mimimum Inhibitory Concentrations, IMP-1” value [10] was over 64 microgram/mL.
In the case of CC(C)(O/N=C(\C(=O)N[C@@H]1C(=O)N2C(C(=O)O)=C(C=Cc3ccc(C[N+](C)(C)CCc4ccc(O)c(O)c4)cc3)CS[C@H]12)c1csc(N)n1)C(=O)O (mixture of isomers) [Compound 440, N-(4-((E/Z)-2-((6R,7R)-7-((Z)-2-(2-aminothiazol-4-yl)-2-(((2-carboxypropan-2-yl)oxy)imino)acetamido)-2-carboxy-8-oxo-5-thia-1-azabicyclo[4.2.0]oct-2-en-3-yl)vinyl)benzyl)-2-(3,4-dihydroxyphenyl)-N,N-dimethylethan-1-aminium], the MIC (E. coli J53 Alone) is reported as 0.25 µg/mL, the “Mimimum Inhibitory Concentrations, J53 Alone” value (E. coli J53 Alone; Table 4-2) is reported as 0.25 microgram/mL and the MIC [1] is reported as 0.25 µg/mL. It also gave an MIC [2] of 1 µg/mL, an MIC [3] of 1 µg/mL and an MIC [4] of 2 µg/mL. The MIC [5] was 0.25 µg/mL, the MIC [6] was 16 µg/mL and the MIC [7] was 4 µg/mL. The MIC [8] was over 64 µg/mL, the MIC [9] was 0.25 µg/mL and the MIC [10] was 0.13 µg/mL. For the same compound, the “MICs for an E. coli strain carrying the gene for carbapenemase IMP-1, in words” value [10] was “low microgram/mL MICs”.
With CC(C)(O/N=C(\C(=O)N[C@@H]1C(=O)N2C(C(=O)O)=C(C=Cc3ccc(C[N+]4(C)CCc5cc(O)c(O)cc5C4)cc3)CS[C@H]12)c1nsc(N)n1)C(=O)O (mixture of isomers) [Compound 437, 2-(4-((E/Z)-2-((6R,7R)-7-((Z)-2-(5-amino-1,2,4-thiadiazol-3-yl)-2-(((2-carboxypropan-2-yl)oxy)imino)acetamido)-2-carboxy-8-oxo-5-thia-1-azabicyclo[4.2.0]oct-2-en-3-yl)vinyl)benzyl)-6,7-dihydroxy-2-methyl-1,2,3,4-tetrahydroisoquinolin-2-ium] the “Mimimum Inhibitory Concentrations, J53 Alone” value (E. coli J53 Alone; Table 4-1) was 0.25 microgram/mL, the “Mimimum Inhibitory Concentrations, J53 Alone” value (E. coli J53 Alone; Table 4-2) was 0.25 microgram/mL and the “Mimimum Inhibitory Concentrations, DHA-1” value [1] was 0.5 microgram/mL. The “Mimimum Inhibitory Concentrations, TEM-26” value [2] was 1 microgram/mL, the “Mimimum Inhibitory Concentrations, SHV-1” value [3] was 2 microgram/mL and the “Mimimum Inhibitory Concentrations, CTX-M-14” value [4] was 4 microgram/mL. The “Mimimum Inhibitory Concentrations, CTX-M-15” value [5] was 0.5 microgram/mL, the “Mimimum Inhibitory Concentrations, KPC-2” value [6] was 16 microgram/mL and the “Mimimum Inhibitory Concentrations, KPC-3” value [7] was 2 microgram/mL. The “Mimimum Inhibitory Concentrations, NDM-1” value [8] was over 64 microgram/mL, the “Mimimum Inhibitory Concentrations, VIM-2” value [9] was 1 microgram/mL and the “Mimimum Inhibitory Concentrations, IMP-1” value [10] was 0.13 microgram/mL. The “MICs for an E. coli strain carrying the gene for carbapenemase IMP-1, in words” value [10] was “low microgram/mL MICs”.
With COc1cc[n+](Cc2ccc(C=CC3=C(C(=O)O)N4C(=O)[C@@H](NC(=O)/C(=N\OC(C)(C)C(=O)O)c5csc(N)n5)[C@H]4SC3)cc2)cc1OC (mixture of isomers) [Compound 402, 1-(4-((E/Z)-2-((6R,7R)-7-((Z)-2-(2-aminothiazol-4-yl)-2-(((2-carboxypropan-2-yl)oxy)imino)acetamido)-2-carboxy-8-oxo-5-thia-1-azabicyclo[4.2.0]oct-2-en-3-yl)vinyl)benzyl)-3,4-dimethoxypyridin-1-ium] the MIC (E. coli J53 Alone) was 0.5 µg/mL, the “Mimimum Inhibitory Concentrations, J53 Alone” value (E. coli J53 Alone; Table 4-2) was 0.5 microgram/mL and the MIC [1] was 1 µg/mL. It also gave an MIC [2] of 4 µg/mL, an MIC [3] of 2 µg/mL and an MIC [4] of 4 µg/mL. The MIC [5] was over 64 µg/mL, the MIC [6] was 64 µg/mL and the MIC [7] was 16 µg/mL. The MIC [8] was over 64 µg/mL, the MIC [9] was 4 µg/mL and the MIC [10] was over 64 µg/mL.
In the case of CC(C)(O/N=C(\C(=O)N[C@@H]1C(=O)N2C(C(=O)O)=C(C=Cc3ccc(C[n+]4ccc(O)c(O)c4)cc3)CS[C@H]12)c1csc(N)n1)C(=O)O (mixture of isomers) [Compound 443, 1-(4-((E/Z)-2-((6R,7R)-7-((Z)-2-(2-aminothiazol-4-yl)-2-(((2-carboxypropan-2-yl)oxy)imino)acetamido)-2-carboxy-8-oxo-5-thia-1-azabicyclo[4.2.0]oct-2-en-3-yl)vinyl)benzyl)-3,4-dihydroxypyridin-1-ium], the “Mimimum Inhibitory Concentrations, J53 Alone” value (E. coli J53 Alone; Table 4-1) is reported as 0.13 microgram/mL, the “Mimimum Inhibitory Concentrations, J53 Alone” value (E. coli J53 Alone; Table 4-2) is reported as 0.13 microgram/mL and the “Mimimum Inhibitory Concentrations, DHA-1” value [1] is reported as 1 microgram/mL. For the same compound, the “Mimimum Inhibitory Concentrations, TEM-26” value [2] was 2 microgram/mL, the “Mimimum Inhibitory Concentrations, SHV-1” value [3] was 1 microgram/mL and the “Mimimum Inhibitory Concentrations, CTX-M-14” value [4] was 0.25 microgram/mL. The “Mimimum Inhibitory Concentrations, CTX-M-15” value [5] was 1 microgram/mL, the “Mimimum Inhibitory Concentrations, KPC-2” value [6] was 8 microgram/mL and the “Mimimum Inhibitory Concentrations, KPC-3” value [7] was 4 microgram/mL. The “Mimimum Inhibitory Concentrations, NDM-1” value [8] was over 64 microgram/mL, the “Mimimum Inhibitory Concentrations, VIM-2” value [9] was 0.25 microgram/mL and the “Mimimum Inhibitory Concentrations, IMP-1” value [10] was 4 microgram/mL.
